In ChEMBL document CHEMBL4765323, “Design, synthesis, and biological evaluation of novel miconazole analogues containing selenium as potent antifungal agents” (Eur J Med Chem, 2020):
Values after ≈ are worked out from the molar mass of the structure shown. Active and inactive are the calls of the source. The rule behind the calls is not given here.

Assays:
Erythrocyte = assay: Hemolytic activity in rabbit RBC assessed as hemolysis ratio at 1 ug/ml measured after 3 hrs relative to control; format: ADME, cell-based, Oryctolagus cuniculus; details: dose 1 µg/ml
Candida albicans [1] = assay: Antifungal activity against Candida albicans 901 measured after 24 hrs by micro-broth dilution assay; format: functional
Candida albicans [2] = assay: Inhibition of CYP51 in azole-resistant Candida albicans ATCC […] assessed as Lanosterol level at 0.03125 ug/ml incubated for 16 hrs by LC-MS analysis relative to control; parameters: scale not given: the % may be the effect or the level left; details: dose 0.03125 µg/ml
Candida albicans [3] = assay: Antibiofilm activity against FCZ-Resistant Candida albicans CPCC400616 assessed as sessile minimum inhibitory concentration of biofilm formation at 80% after 24 hrs by XTT assay; format: functional
Candida albicans [4] = assay: Inhibition of CYP51 in azole-resistant Candida albicans ATCC […] assessed as Obtusifoliol level at 0.125 ug/ml incubated for 16 hrs by LC-MS analysis relative to control; parameters: scale not given: the % may be the effect or the level left; details: dose 0.125 µg/ml
Candida albicans [5] = assay: Inhibition of CYP51 in azole-resistant Candida albicans ATCC […] assessed as Obtusifoliol level at 0.03125 ug/ml incubated for 16 hrs by LC-MS analysis relative to control; parameters: scale not given: the % may be the effect or the level left; details: dose 0.03125 µg/ml
Candida albicans [6] = assay: Antibiofilm activity against FCZ-Resistant Candida albicans CPCC400616 assessed as sessile minimum inhibitory concentration of biofilm formation at 80% after 6 hrs by XTT assay; format: functional
Candida albicans [7] = assay: Antifungal activity against fluconazole-resistant Candida albicans 632 measured after 24 hrs by micro-broth dilution assay; format: functional
Candida albicans [8] = assay: Antibiofilm activity against FCZ-Resistant Candida albicans CPCC400616 assessed as sessile minimum inhibitory concentration of biofilm formation at 50% after 3 hrs by XTT assay; format: functional
Candida albicans [9] = assay: Inhibition of CYP51 in azole-resistant Candida albicans ATCC […] assessed as Lanosterol level at 0.125 ug/ml incubated for 16 hrs by LC-MS analysis relative to control; parameters: scale not given: the % may be the effect or the level left; details: dose 0.125 µg/ml
Candida albicans [10] = assay: Antifungal activity against Candida albicans CPCC400616 measured after 24 hrs by micro-broth dilution assay; format: functional
Candida albicans [11] = assay: Antifungal activity against fluconazole-resistant Candida albicans CaR measured after 24 hrs by micro-broth dilution assay; format: functional
Candida albicans [12] = assay: Antifungal activity against fluconazole-resistant Candida albicans 17 measured after 24 hrs by micro-broth dilution assay; format: functional
Candida albicans [13] = assay: Inhibition of CYP51 in azole-resistant Candida albicans ATCC […] assessed as Obtusifoliol level at 0.5 ug/ml incubated for 16 hrs by LC-MS analysis relative to control; parameters: scale not given: the % may be the effect or the level left; details: dose 0.5 µg/ml
[14] = Ratio of hemolysis activity in rabbit RBC to MIC for Candida albicans; format: toxicity; details: rabbit red blood cells (RBC)
Cryptococcus neoformans = assay: Antifungal activity against Cryptococcus neoformans CGMCC2.3161 measured after 72 hrs by micro-broth dilution assay; format: functional
Candida albicans [15] = assay: Antibiofilm activity against FCZ-Resistant Candida albicans CPCC400616 assessed as sessile minimum inhibitory concentration of biofilm formation at 50% after 24 hrs by XTT assay; format: functional
Candida albicans [16] = assay: Antibiofilm activity against FCZ-Resistant Candida albicans CPCC400616 assessed as sessile minimum inhibitory concentration of biofilm formation at 80% after 3 hrs by XTT assay; format: functional
Candida albicans [17] = assay: Inhibition of CYP51 in azole-resistant Candida albicans ATCC […] assessed as Eburicol level at 0.125 ug/ml incubated for 16 hrs by LC-MS analysis relative to control; parameters: scale not given: the % may be the effect or the level left; details: dose 0.125 µg/ml
Candida albicans [18] = assay: Fungicidal activity against Candida albicans CPCC400616 at 8 times MIC measured after 4 hrs by time-kill curve assay; format: functional, organism-based
Candida albicans [19] = assay: Inhibition of CYP51 in azole-resistant Candida albicans ATCC […] assessed as Lanosterol level at 0.5 ug/ml incubated for 16 hrs by LC-MS analysis relative to control; parameters: scale not given: the % may be the effect or the level left; details: dose 0.5 µg/ml
Aspergillus fumigatus = assay: Antifungal activity against Aspergillus fumigatus CGMCC 3.7795 measured after 72 hrs by micro-broth dilution assay; format: functional
Candida albicans [20] = assay: Fungicidal activity against Candida albicans CPCC400616 measured after 48 hrs; format: functional
Candida albicans [21] = assay: Inhibition of CYP51 in azole-resistant Candida albicans ATCC […] assessed as Eburicol level at 0.03125 ug/ml incubated for 16 hrs by LC-MS analysis relative to control; parameters: scale not given: the % may be the effect or the level left; details: dose 0.03125 µg/ml
Candida albicans [22] = assay: Inhibition of CYP51 in azole-resistant Candida albicans ATCC […] assessed as ergosterol level at 2 ug/ml incubated for 16 hrs by LC-MS analysis relative to control; parameters: scale not given: the % may be the effect or the level left; details: dose 2.0 µg/ml
Candida albicans [23] = assay: Inhibition of CYP51 in azole-resistant Candida albicans ATCC […] assessed as ergosterol level at 0.5 ug/ml incubated for 16 hrs by LC-MS analysis relative to control; parameters: scale not given: the % may be the effect or the level left; details: dose 0.5 µg/ml
Candida albicans [24] = assay: Inhibition of CYP51 in azole-resistant Candida albicans ATCC […] assessed as Lanosterol level at 8 ug/ml incubated for 16 hrs by LC-MS analysis relative to control; parameters: scale not given: the % may be the effect or the level left; details: dose 8.0 µg/ml
Candida albicans [25] = assay: Inhibition of CYP51 in azole-resistant Candida albicans ATCC […] assessed as inhibition of ergosterol biosynthesis by measuring ergosterol content at 8 ug/ml incubated for 16 hrs by LC-MS analysis relative to control; parameters: scale not given: the % may be the effect or the level left; details: dose 8.0 µg/ml
Candida albicans [26] = assay: Inhibition of CYP51 in azole-resistant Candida albicans ATCC […] assessed as ergosterol level at 0.125 ug/ml incubated for 16 hrs by LC-MS analysis relative to control; parameters: scale not given: the % may be the effect or the level left; details: dose 0.125 µg/ml
Candida parapsilosis = assay: Antifungal activity against Candida parapsilosis ATCC 22019 measured after 24 hrs by micro-broth dilution assay; format: functional; details: Lodderomyces parapsilosis
Candida albicans [27] = assay: Inhibition of CYP51 in azole-resistant Candida albicans ATCC […] assessed as Eburicol level at 2 ug/ml incubated for 16 hrs by LC-MS analysis relative to control; parameters: scale not given: the % may be the effect or the level left; details: dose 2.0 µg/ml
Candida albicans [28] = assay: Antibiofilm activity against FCZ-Resistant Candida albicans CPCC400616 assessed as sessile minimum inhibitory concentration of biofilm formation at 50% after 1.5 hrs by XTT assay; format: functional
[29] = Ratio of MFC for fungicidal activity against Candida albicans CPCC400616 to MIC for Antifungal activity against Candida albicans CPCC400616; format: functional; details: time 24 hrs
Candida albicans [30] = assay: Inhibition of CYP51 in azole-resistant Candida albicans ATCC […] assessed as ergosterol level at 0.03125 ug/ml incubated for 16 hrs by LC-MS analysis relative to control; parameters: scale not given: the % may be the effect or the level left; details: dose 0.03125 µg/ml
[Candida] zeylanoides = Antifungal activity against Candida zeylanoides CMGCC2.3739 measured after 24 hrs by micro-broth dilution assay; format: functional; details: Dujonia zeylanoides
Candida albicans [31] = assay: Antifungal activity against fluconazole-resistant Candida albicans strain 904 measured after 24 hrs by micro-broth dilution assay; format: functional
Candida albicans [32] = assay: Fungicidal activity against Candida albicans CPCC400616 at MIC to 8 times MIC measured after 24 hrs by time-kill curve assay; format: functional
Candida albicans [33] = assay: Antibiofilm activity against FCZ-Resistant Candida albicans CPCC400616 assessed as sessile minimum inhibitory concentration of biofilm formation at 80% after 1.5 hrs by XTT assay; format: functional
Pichia kudriavzevii = assay: Antifungal activity against Candida krusei AS 2.1045 measured after 24 hrs by micro-broth dilution assay; format: functional
Candida albicans [34] = assay: Antifungal activity against Candida albicans ATCC SC5314 measured after 24 hrs by micro-broth dilution assay; format: functional
Candida albicans [35] = assay: Inhibition of CYP51 in azole-resistant Candida albicans ATCC […] assessed as Lanosterol level at 2 ug/ml incubated for 16 hrs by LC-MS analysis relative to control; parameters: scale not given: the % may be the effect or the level left; details: dose 2.0 µg/ml
Candida albicans [36] = assay: Antibiofilm activity against FCZ-Resistant Candida albicans CPCC400616 assessed as sessile minimum inhibitory concentration of biofilm formation at 50% after 6 hrs by XTT assay; format: functional
Candida albicans [37] = assay: Inhibition of CYP51 in azole-resistant Candida albicans ATCC […] assessed as Eburicol level at 0.5 ug/ml incubated for 16 hrs by LC-MS analysis relative to control; parameters: scale not given: the % may be the effect or the level left; details: dose 0.5 µg/ml
Candida albicans [38] = assay: Inhibition of CYP51 in azole-resistant Candida albicans ATCC […] assessed as Obtusifoliol level at 8 ug/ml incubated for 16 hrs by LC-MS analysis relative to control; parameters: scale not given: the % may be the effect or the level left; details: dose 8.0 µg/ml
Nakaseomyces glabratus = assay: Antifungal activity against clinical isolate Candida glabrata measured after 24 hrs by micro-broth dilution assay; format: functional
Candida albicans [39] = assay: Inhibition of CYP51 in azole-resistant Candida albicans ATCC […] assessed as Obtusifoliol level at 2 ug/ml incubated for 16 hrs by LC-MS analysis relative to control; parameters: scale not given: the % may be the effect or the level left; details: dose 2.0 µg/ml
Candida albicans [40] = assay: Inhibition of CYP51 in azole-resistant Candida albicans ATCC […] assessed as Eburicol level at 8 ug/ml incubated for 16 hrs by LC-MS analysis relative to control; parameters: scale not given: the % may be the effect or the level left; details: dose 8.0 µg/ml

Structure (SMILES): Clc1ccc(C(Cn2ccnc2)[Se]Cc2ccccc2Cl)c(Cl)c1 (configuration not stated)
- Activity (Erythrocyte): 0 µg/mL
- MIC (Candida albicans [1]): 0.5 µg/mL (≈ 1.12 µM)
- Activity (Candida albicans [2]): 0%
- Activity (Candida albicans [3]): >128 µg/mL
- Activity (Candida albicans [4]): 9.5%
- Activity (Candida albicans [5]): 1%
- Activity (Candida albicans [6]): >128 µg/mL
- MIC (Candida albicans [7]): 1 µg/mL (≈ 2.25 µM)
- Activity (Candida albicans [8]): 16 µg/mL
- Activity (Candida albicans [9]): 11.6%
- MIC (Candida albicans [10]): 0.02 µg/mL (≈ 0.045 µM)
- MIC (Candida albicans [11]): 0.06 µg/mL (≈ 0.135 µM)
- MIC (Candida albicans [12]): 0.13 µg/mL (≈ 0.292 µM)
- Activity (Candida albicans [13]): 17.4%
- selectivity ratio [14]: 256
- MIC (Cryptococcus neoformans): 0.25 µg/mL (≈ 0.562 µM)
- Activity (Candida albicans [15]): >128 µg/mL
- Activity (Candida albicans [16]): 64 µg/mL
- Activity (Candida albicans [17]): 5.3%
- Activity (Candida albicans [18]): Active
- Activity (Candida albicans [19]): 10%
- MIC (Aspergillus fumigatus): 2 µg/mL (≈ 4.5 µM)
- MIC (Candida albicans [20]): 0.125 µg/mL (≈ 0.281 µM)
- Activity (Candida albicans [21]): 7.4%
- Activity (Candida albicans [22]): 19.8%
- Activity (Candida albicans [23]): 78.9%
- Activity (Candida albicans [24]): 12.4%
- Activity (Candida albicans [25]): 77.7%
- Activity (Candida albicans [26]): 80.3%
- MIC (Candida parapsilosis): 0.13 µg/mL (≈ 0.292 µM)
- Activity (Candida albicans [27]): 75.1%
- Activity (Candida albicans [28]): 4 µg/mL
- MFC/MIC ratio [29]: 8
- Activity (Candida albicans [30]): 86.4%
- MIC ([Candida] zeylanoides): 1 µg/mL (≈ 2.25 µM)
- MIC (Candida albicans [31]): 0.25 µg/mL (≈ 0.562 µM)
- Activity (Candida albicans [32]): >3 log10CFU/ml
- Activity (Candida albicans [33]): 8 µg/mL
- MIC (Pichia kudriavzevii): 0.13 µg/mL (≈ 0.292 µM)
- MIC (Candida albicans [34]): 0.01 µg/mL (≈ 0.0225 µM)
- Activity (Candida albicans [35]): 13.6%
- Activity (Candida albicans [36]): 128 µg/mL
- Activity (Candida albicans [37]): 70.3%
- Activity (Candida albicans [38]): 8.1%
- MIC (Nakaseomyces glabratus): 0.5 µg/mL (≈ 1.12 µM)
- Activity (Candida albicans [39]): 7.8%
- Activity (Candida albicans [40]): 64.6%
